From ChEMBL document CHEMBL5233221, “Celastrol: Progresses in structure-modifications, structure-activity relationships, pharmacology and toxicology” (Eur J Med Chem, 2020)
In brackets after ≈: the same amount, converted by molar mass. Each block holds one molecule with its values, some of them ahead of it.

Tests used:
[1] = system: Bel-7402; test: Antiproliferative activity against human Bel-7402 cells assessed as cell growth inhibition; type: functional, cell-based
[2] = Toxicity in wild-type Zebrafish embryos measured after 48 hrs; parameters: species or system Danio rerio
[3] = system: RCC4; test: Antiproliferative activity against human RCC4 cells assessed as cell growth inhibition; type: functional, cell-based
[4] = system: SW13; test: Antiproliferative activity against human SW13 cells assessed as cell growth inhibition; type: functional, cell-based
[5] = Antiproliferative activity against human 253J-BV cells assessed as cell growth inhibition; type: functional, cell-based
[6] = system: KBM5; test: Antiproliferative activity against human KBM5 cells assessed as cell growth inhibition; type: functional, cell-based
[7] = Antiproliferative activity against human YCC-2 cells assessed as cell growth inhibition; type: functional, cell-based
[8] = system: RPMI-8226; test: Antiproliferative activity against bortezomib resistant human RPMI-8226 cells assessed as cell growth inhibition; type: functional, cell-based
[9] = Antiproliferative activity against human 95-D cells assessed as cell growth inhibition; type: functional, cell-based
[10] = system: NCI-H1650; test: Antiproliferative activity against human NCI-H1650 cells assessed as cell growth inhibition; type: functional, cell-based
[11] = system: U-266; test: Antiproliferative activity against human U-266 cells assessed as cell growth inhibition; type: functional, cell-based
[12] = target: T1, Cytochrome P450 3A2 (Rattus norvegicus, UniProt P05183); test: Inhibition of rat CYP3A2
T1 sequence (P05183 whole entry): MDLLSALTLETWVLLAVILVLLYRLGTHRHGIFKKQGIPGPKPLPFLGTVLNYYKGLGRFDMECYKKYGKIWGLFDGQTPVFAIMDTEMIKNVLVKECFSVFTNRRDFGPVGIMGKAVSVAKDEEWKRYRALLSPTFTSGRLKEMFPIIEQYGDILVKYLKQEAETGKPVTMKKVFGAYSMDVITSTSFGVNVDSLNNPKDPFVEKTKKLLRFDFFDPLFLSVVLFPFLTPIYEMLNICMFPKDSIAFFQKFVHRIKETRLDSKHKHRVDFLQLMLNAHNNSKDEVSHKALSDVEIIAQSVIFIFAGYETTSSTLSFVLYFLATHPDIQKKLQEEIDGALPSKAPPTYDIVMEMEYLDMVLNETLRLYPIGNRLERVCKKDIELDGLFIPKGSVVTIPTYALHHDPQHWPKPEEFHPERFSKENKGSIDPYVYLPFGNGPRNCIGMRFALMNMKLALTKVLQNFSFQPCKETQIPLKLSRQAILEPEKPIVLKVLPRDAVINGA

[13] = system: SK-MEL-28; test: Antiproliferative activity against human SK-MEL-28 cells assessed as cell growth inhibition; type: functional, cell-based
[14] = Antiproliferative activity against human Renal cancer tumor cell line assessed as cell growth inhibition; type: functional, cell-based
[15] = system: HCC827; test: Antiproliferative activity against human HCC827 cells assessed as cell growth inhibition; type: functional, cell-based
[16] = system: HOS; test: Antiproliferative activity against human HOS cells assessed as cell growth inhibition; type: functional, cell-based
[17] = system: SAOS-2; test: Antiproliferative activity against human SAOS-2 cells assessed as cell growth inhibition; type: functional, cell-based
[18] = system: NCI-H929; test: Antiproliferative activity against human NCI-H929 cells assessed as cell growth inhibition; type: functional, cell-based
[19] = system: NCI-H1975; test: Antiproliferative activity against human NCI-H1975 cells assessed as cell growth inhibition; type: functional, cell-based
[20] = system: KBM5; test: Antiproliferative activity against human KBM5 cells expressing Bcr-Abl harboring T315I mutant assessed as cell growth inhibition; type: functional, cell-based
[21] = system: NSCLC; test: Antiproliferative activity against human NSCLC cells assessed as cell growth inhibition; type: functional, cell-based
[22] = system: NCI-H2228; test: Antiproliferative activity against human NCI-H2228 cells assessed as cell growth inhibition; type: functional, cell-based
[23] = system: RPMI-8226; test: Antiproliferative activity against human RPMI-8226 cells assessed as cell growth inhibition; type: functional, cell-based
[24] = system: Erysiphales; test: Antifungal activity against powdery mildew assessed as curative effects at 100 ug/ml relative to control; type: functional; conditions: dose 100 µg/ml
[25] = system: U-251; test: Antiproliferative activity against human U-251MG cells assessed as cell growth inhibition; type: functional, cell-based
[26] = target: T2, Cytochrome P450 2C11 (Rattus norvegicus, UniProt P08683); test: Inhibition of rat Cyp2c11; type: ADME
T2 sequence (P08683 whole entry): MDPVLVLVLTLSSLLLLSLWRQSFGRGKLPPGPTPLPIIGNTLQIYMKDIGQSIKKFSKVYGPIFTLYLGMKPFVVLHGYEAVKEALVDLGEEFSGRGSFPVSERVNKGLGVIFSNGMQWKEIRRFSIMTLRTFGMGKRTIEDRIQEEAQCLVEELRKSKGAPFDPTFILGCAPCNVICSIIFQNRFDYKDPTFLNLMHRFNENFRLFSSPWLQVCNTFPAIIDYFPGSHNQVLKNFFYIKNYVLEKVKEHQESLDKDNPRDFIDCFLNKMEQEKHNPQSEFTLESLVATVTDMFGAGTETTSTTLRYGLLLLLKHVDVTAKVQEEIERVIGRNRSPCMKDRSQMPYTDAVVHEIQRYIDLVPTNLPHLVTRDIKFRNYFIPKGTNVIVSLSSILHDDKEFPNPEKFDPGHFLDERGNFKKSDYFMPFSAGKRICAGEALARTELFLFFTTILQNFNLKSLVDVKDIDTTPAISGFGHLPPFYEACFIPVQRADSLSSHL

[27] = system: MKN-28; test: Antiproliferative activity against human MKN-28 cells assessed as cell growth inhibition; type: functional, cell-based
[28] = system: LNCaP; test: Antiproliferative activity against human LNCaP cells assessed as cell growth inhibition; type: functional, cell-based
[29] = system: Erysiphales; test: Antifungal activity against powdery mildew assessed as preventive effects at 100 ug/ml relative to control; type: functional; conditions: dose 100 µg/ml
[30] = Toxicity in wild-type Zebrafish embryos assessed as lethal effect; parameters: species or system Danio rerio; conditions: in vivo
[31] = system: A549; test: Antiproliferative activity against human A549 cells assessed as cell growth inhibition; type: functional, cell-based
[32] = Antiproliferative activity against human Nasopharyngeal carcinoma cell line assessed as cell growth inhibition; type: functional, cell-based
[33] = system: Staphylococcus aureus; test: Antibacterial activity against Staphylococcus aureus assessed as inhibition of bacterial growth; type: functional
[34] = system: MCF7; test: Antiproliferative activity against human MCF7 cells assessed as cell growth inhibition; type: functional, cell-based
[35] = target: T3, Cytochrome P450 1A2 (Rattus norvegicus, UniProt P04799); test: Binding affinity to rat CYP1A2
T3 sequence (P04799 whole entry): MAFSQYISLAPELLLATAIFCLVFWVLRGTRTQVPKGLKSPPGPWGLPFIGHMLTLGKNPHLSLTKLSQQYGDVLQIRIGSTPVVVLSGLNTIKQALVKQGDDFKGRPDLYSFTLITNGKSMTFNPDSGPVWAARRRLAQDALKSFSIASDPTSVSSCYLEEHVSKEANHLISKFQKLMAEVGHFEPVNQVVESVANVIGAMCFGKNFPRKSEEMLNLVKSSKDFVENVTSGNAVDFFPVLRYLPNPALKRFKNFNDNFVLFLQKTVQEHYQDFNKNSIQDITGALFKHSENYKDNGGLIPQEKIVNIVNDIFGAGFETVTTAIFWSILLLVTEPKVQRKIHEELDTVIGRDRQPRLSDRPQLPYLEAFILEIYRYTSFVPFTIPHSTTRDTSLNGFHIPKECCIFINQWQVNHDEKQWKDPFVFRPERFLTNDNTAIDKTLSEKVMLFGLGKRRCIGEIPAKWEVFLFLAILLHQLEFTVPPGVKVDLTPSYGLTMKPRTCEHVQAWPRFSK

[36] = system: Kasumi 1; test: Antiproliferative activity against human Kasumi 1 cells assessed as cell growth inhibition; type: functional, cell-based
[37] = Antiproliferative activity against dog CL-1 cells assessed as cell growth inhibition; type: functional, cell-based; conditions: Canis lupus familiaris
[38] = system: MDA-MB-231; test: Antiproliferative activity against human MDA-MB-231 cells assessed as cell growth inhibition; type: functional, cell-based
[39] = Antiproliferative activity against human GLC-82 cells assessed as cell growth inhibition; type: functional, cell-based; conditions: GLC82
[40] = system: Mus musculus; test: Antiinflammatory activity in po dosed asthmatic mouse model; type: functional
[41] = system: LP-1; test: Antiproliferative activity against human LP-1 cells assessed as cell growth inhibition; type: functional, cell-based
[42] = system: PC-3; test: Antiproliferative activity against human PC-3 cells assessed as cell growth inhibition; type: functional, cell-based
[43] = system: C3A; test: Antiproliferative activity against human C3A cells assessed as cell growth inhibition; type: functional, cell-based
[44] = system: MM1.S; test: Antiproliferative activity against human MM1.S cells assessed as cell growth inhibition; type: functional, cell-based
[45] = target: UDP-glucuronosyltransferase 1A6 (Homo sapiens, UniProt P19224); test: Binding affinity to UGT1A6 (unknown origin) assessed as inhibition constant
Chain of UDP-glucuronosyltransferase 1A6 (P19224 whole entry): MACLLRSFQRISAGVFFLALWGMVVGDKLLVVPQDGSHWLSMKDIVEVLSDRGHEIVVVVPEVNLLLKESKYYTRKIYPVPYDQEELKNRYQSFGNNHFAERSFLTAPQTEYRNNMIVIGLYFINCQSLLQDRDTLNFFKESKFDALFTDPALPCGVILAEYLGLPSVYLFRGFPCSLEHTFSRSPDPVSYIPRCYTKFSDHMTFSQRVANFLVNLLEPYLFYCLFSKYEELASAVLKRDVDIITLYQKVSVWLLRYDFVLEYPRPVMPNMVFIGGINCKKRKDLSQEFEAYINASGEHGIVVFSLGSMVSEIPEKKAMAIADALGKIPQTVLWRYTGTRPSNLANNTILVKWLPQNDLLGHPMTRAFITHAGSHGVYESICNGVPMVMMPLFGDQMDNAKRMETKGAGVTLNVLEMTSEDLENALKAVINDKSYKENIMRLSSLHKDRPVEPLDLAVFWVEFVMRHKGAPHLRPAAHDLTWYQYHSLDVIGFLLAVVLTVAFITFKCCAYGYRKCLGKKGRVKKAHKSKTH

[46] = target: T2, Cytochrome P450 2C11; test: Binding affinity to rat Cyp2c11; type: ADME
[47] = system: AGS; test: Antiproliferative activity against human AGS cells assessed as cell growth inhibition; type: functional, cell-based
[48] = Antiproliferative activity against human KU-7 cells assessed as cell growth inhibition; type: functional, cell-based; conditions: KU7
[49] = system: Colletotrichum gloeosporioides; test: Antifungal activity against Glomerella cingulata assessed as inhibition of fungal growth at 10 ug/ml relative to control; type: functional; parameters: scale not given: the % may be the effect or the level left; conditions: dose 10 µg/ml
[50] = target: T3, Cytochrome P450 1A2; test: Inhibition of rat CYP1A2
[51] = system: NCI-H1299; test: Antiproliferative activity against human NCI-H1299 cells assessed as cell growth inhibition; type: functional, cell-based
[52] = system: HepG2; test: Antiproliferative activity against human HepG2 cells assessed as cell growth inhibition; type: functional, cell-based
[53] = target: UDP-glucuronosyltransferase 2B7 (Homo sapiens, UniProt P16662); test: Binding affinity to UGT2B7 (unknown origin) assessed as inhibition constant
Chain of UDP-glucuronosyltransferase 2B7 (P16662 whole entry): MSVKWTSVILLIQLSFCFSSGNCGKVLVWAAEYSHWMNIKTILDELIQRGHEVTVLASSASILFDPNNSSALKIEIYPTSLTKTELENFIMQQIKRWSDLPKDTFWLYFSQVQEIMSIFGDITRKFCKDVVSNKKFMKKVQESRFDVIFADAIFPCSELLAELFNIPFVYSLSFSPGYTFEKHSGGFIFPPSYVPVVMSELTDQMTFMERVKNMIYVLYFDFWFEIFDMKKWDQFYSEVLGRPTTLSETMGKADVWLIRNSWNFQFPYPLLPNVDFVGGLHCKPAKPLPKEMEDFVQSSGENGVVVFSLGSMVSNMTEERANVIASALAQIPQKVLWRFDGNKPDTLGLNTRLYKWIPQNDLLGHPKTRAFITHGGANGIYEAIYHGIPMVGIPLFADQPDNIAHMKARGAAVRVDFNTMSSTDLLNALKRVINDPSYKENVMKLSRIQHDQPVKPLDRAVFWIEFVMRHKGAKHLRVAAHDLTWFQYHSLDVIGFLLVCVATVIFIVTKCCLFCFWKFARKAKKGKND

[54] = Antiproliferative activity against human MM1.R cells assessed as cell growth inhibition; type: functional, cell-based; conditions: MM.1R
[55] = system: SCC-38; test: Antiproliferative activity against human SCC-38 cells assessed as cell growth inhibition; type: functional, cell-based
[56] = Toxicity in wild-type Zebrafish embryos measured after 72 hrs; parameters: species or system Danio rerio
[57] = system: MG-63; test: Antiproliferative activity against human MG-63 cells assessed as cell growth inhibition; type: functional, cell-based
[58] = system: A2780; test: Antiproliferative activity against human A2780 cells assessed as cell growth inhibition; type: functional, cell-based
[59] = system: SCC-4; test: Antiproliferative activity against human SCC-4 cells assessed as cell growth inhibition; type: functional, cell-based
[60] = system: U2OS; test: Antiproliferative activity against human U2OS cells assessed as cell growth inhibition; type: functional, cell-based
[61] = system: NCI-H460; test: Antiproliferative activity against human NCI-H460 cells assessed as cell growth inhibition; type: functional, cell-based
[62] = Antiproliferative activity against human SPCA1 cells assessed as cell growth inhibition; type: functional, cell-based
[63] = system: MKN-45; test: Antiproliferative activity against human MKN-45 cells assessed as cell growth inhibition; type: functional, cell-based
[64] = target: T1, Cytochrome P450 3A2; test: Binding affinity to rat CYP3A2
[65] = system: RPMI-8226; test: Antiproliferative activity against doxorubicin resistant human RPMI-8226 cells assessed as cell growth inhibition; type: functional, cell-based
[66] = system: SK-OV-3; test: Antiproliferative activity against human SK-OV-3 cells assessed as cell growth inhibition; type: functional, cell-based
[67] = system: Rhizoctonia solani; test: Antifungal activity against Rhizoctonia solani assessed as inhibition of fungal growth at 10 ug/ml relative to control; type: functional; parameters: scale not given: the % may be the effect or the level left; conditions: dose 10 µg/ml
[68] = system: Huh-7; test: Antiproliferative activity against human Huh-7 cells assessed as cell growth inhibition; type: functional, cell-based
[69] = Antiproliferative activity against human SKNO-1 cells assessed as cell growth inhibition; type: functional, cell-based
[70] = system: NCI-H1975; test: Antiproliferative activity against gefitinib-resistant human NCI-H1975 cells assessed as cell growth inhibition; type: functional, cell-based
[71] = system: UMSCC1; test: Antiproliferative activity against human UMSCC1 cells assessed as cell growth inhibition; type: functional, cell-based
[72] = Antiproliferative activity against human KATO III stomach cancer cell line assessed as cell growth inhibition; type: functional, cell-based
[73] = Antiproliferative activity against human U373 MG cells assessed as cell growth inhibition; type: functional, cell-based, U-373MG ATCC
[74] = system: DU-145; test: Antiproliferative activity against human DU-145 cells assessed as cell growth inhibition; type: functional, cell-based
[75] = system: U-937; test: Antiproliferative activity against human U-937 cells assessed as cell growth inhibition; type: functional, cell-based
[76] = system: HeLa; test: Antiproliferative activity against human HeLa cells assessed as cell growth inhibition; type: functional, cell-based
[77] = system: K562; test: Antiproliferative activity against human K562 cells assessed as cell growth inhibition; type: functional, cell-based

IC50 [1]: 10 nM
SMILES: COC(=O)[C@]1(C)CC[C@]2(C)CC[C@]3(C)C4=CC(c5cn(C)c6cc(Cl)ccc56)c5c(cc(OC)c(OC)c5C)[C@]4(C)CC[C@@]3(C)[C@@H]2C1 (stereo partly drawn)

SMILES: CC1=C(O)C(=O)C=C2C1=CC=C1[C@@]2(C)CC[C@@]2(C)[C@@H]3C[C@](C)(C(=O)O)CC[C@]3(C)CC[C@]12C [CELASTROL]
EC50 at 48 h [2]: 900 nM
IC50 [3]: 1880 nM
IC50 [4]: 100 nM
IC50 [5]: 930 nM
IC50 [6]: 500 nM
IC50 [7]: 500 nM
IC50 [8]: 730 nM
IC50 [9]: 1800 nM
IC50 [10]: 790 nM
IC50 [11]: 470 nM
IC50 [12]: 23200 nM
IC50 [13]: 1720 nM
IC50 [14]: 4400 nM
IC50 [15]: 1300 nM
IC50 [16]: 2550 nM
IC50 [17]: 1050 nM
IC50 [18]: 310 nM
IC50 [19]: 1660 nM
IC50 [20]: 520 nM
IC50 [21]: 1480 nM
IC50 [22]: 1950 nM
IC50 [23]: 520 nM
Activity [24]: 45.4%
IC50 [25]: 690 nM
IC50 [26]: 10200 nM
IC50 [27]: 2300 nM
IC50 [28]: 1760 nM
Activity [29]: 80.5%
LC50 [30]: 1400 nM
IC50 [31]: 1990 nM
IC50 [32]: 1000 nM
MIC [33]: 0.5 µg/mL (≈ 1.11 µM)
IC50 [34]: 1580 nM
Ki [35]: 39200 nM
IC50 [36]: 2200 nM
IC50 [37]: 1540 nM
IC50 [38]: 670 nM
IC50 [39]: 1080 nM
LD50 [40]: 20.5 mg/kg
IC50 [41]: 880 nM
IC50 [42]: 1520 nM
IC50 [43]: 3600 nM
IC50 [44]: 630 nM
Ki [45]: 490 nM
Ki [46]: 7050 nM
IC50 [47]: 250 nM
IC50 [48]: 1130 nM
Activity [49]: 62.6%
IC50 [50]: 52800 nM
IC50 [51]: 1490 nM
IC50 [52]: 2400 nM
Ki [53]: 45 nM
IC50 [54]: 520 nM
IC50 [55]: 1700 nM
EC50 at 72 h [56]: 700 nM
IC50 [57]: 1970 nM
IC50 [58]: 2110 nM
IC50 [59]: 2800 nM
IC50 [60]: 2110 nM
IC50 [61]: 2200 nM
IC50 [62]: 1800 nM
IC50 [63]: 3400 nM
Ki [64]: 14200 nM
IC50 [65]: 520 nM
IC50 [66]: 2290 nM
Activity [67]: 62.6%
IC50 [68]: 4700 nM
IC50 [69]: 1300 nM
IC50 [70]: 600 nM
IC50 [71]: 760 nM
IC50 [72]: 540 nM
IC50 [73]: 2000 nM
IC50 [74]: 1480 nM
IC50 [75]: 2000 nM
IC50 [76]: 1900 nM
IC50 [77]: 400 nM

IC50 [1]: 20 nM
SMILES: COC(=O)[C@]1(C)CC[C@]2(C)CC[C@]3(C)C4=CC(c5c[nH]c6cc(C)ccc56)c5c(cc(OC)c(OC)c5C)[C@]4(C)CC[C@@]3(C)[C@@H]2C1 (stereo partly drawn)
